Assay results: PubChem BioAssay (NCI)
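Results reflect a 48-hour exposure of cells in 96-well plates to compound at five concentrations. TGI is the concentration that stops growth completely.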

Assays:
Test in all cases: NCI-60 cell line screen, 48 h
RXF-631 renal = tested on: RXF-631 renal
SNB-78 CNS = tested on: SNB-78 CNS
UO-31 renal = tested on: UO-31 renal
SK-MEL-28 melanoma = tested on: SK-MEL-28 melanoma
OVCAR-8 ovarian = tested on: OVCAR-8 ovarian
OVCAR-5 ovarian = tested on: OVCAR-5 ovarian
HL-60(TB) leukemia = tested on: HL-60(TB) leukemia
786-0 renal = tested on: 786-0 renal
KM12 colon = tested on: KM12 colon
UACC-62 melanoma = tested on: UACC-62 melanoma
XF 498 CNS = tested on: XF 498 CNS
SW-620 colon = tested on: SW-620 colon
SF-539 CNS = tested on: SF-539 CNS
HCC-2998 colon = tested on: HCC-2998 colon
CCRF-CEM leukemia = tested on: CCRF-CEM leukemia
TK-10 renal = tested on: TK-10 renal
UACC-257 melanoma = tested on: UACC-257 melanoma
MOLT-4 leukemia = tested on: MOLT-4 leukemia
HT29 colon = tested on: HT29 colon
NCI-H23 lung = tested on: NCI-H23 lung
LXFL 529 NSCLC = tested on: LXFL 529 NSCLC
SK-OV-3 ovarian = tested on: SK-OV-3 ovarian
SN12C renal = tested on: SN12C renal
SF-295 CNS = tested on: SF-295 CNS
HOP-92 NSCLC = tested on: HOP-92 NSCLC
RPMI-8226 leukemia = tested on: RPMI-8226 leukemia
HOP-62 NSCLC = tested on: HOP-62 NSCLC
OVCAR-3 ovarian = tested on: OVCAR-3 ovarian
HCT-116 colon = tested on: HCT-116 colon
SF-268 CNS = tested on: SF-268 CNS
A549 NSCLC = tested on: A549 NSCLC
HCT-15 colon = tested on: HCT-15 colon
A498 renal = tested on: A498 renal
SNB-19 CNS = tested on: SNB-19 CNS
OVCAR-4 ovarian = tested on: OVCAR-4 ovarian
EKVX NSCLC = tested on: EKVX NSCLC
COLO 205 colon = tested on: COLO 205 colon
SK-MEL-5 melanoma = tested on: SK-MEL-5 melanoma
NCI-H522 lung = tested on: NCI-H522 lung
ACHN renal = tested on: ACHN renal
KM20L2 colon = tested on: KM20L2 colon
K-562 leukemia = tested on: K-562 leukemia
DLD-1 colon = tested on: DLD-1 colon
SK-MEL-2 melanoma = tested on: SK-MEL-2 melanoma
LOX IMVI melanoma = tested on: LOX IMVI melanoma
MALME-3M melanoma = tested on: MALME-3M melanoma
IGROV1 ovarian = tested on: IGROV1 ovarian
M14 melanoma = tested on: M14 melanoma
DMS 114 small cell lung = tested on: DMS 114 small cell lung
DMS 273 small cell lung = tested on: DMS 273 small cell lung
NCI-H460 lung = tested on: NCI-H460 lung
SNB-75 CNS = tested on: SNB-75 CNS
U251 CNS = tested on: U251 CNS
SR leukemia = tested on: SR leukemia
PC-3 prostate = tested on: PC-3 prostate
DU-145 prostate = tested on: DU-145 prostate
MDA-MB-231 breast = tested on: MDA-MB-231 breast
CAKI-1 renal = tested on: CAKI-1 renal
HS 578T breast = tested on: HS 578T breast
BT-549 breast = tested on: BT-549 breast
NCI-H226 lung = tested on: NCI-H226 lung
M19-MEL melanoma = tested on: M19-MEL melanoma
T-47D breast = tested on: T-47D breast
NCI/ADR-RES ovarian = tested on: NCI/ADR-RES ovarian
RXF 393 renal = tested on: RXF 393 renal
MDA-N = tested on: MDA-N
MDA-MB-435 = tested on: MDA-MB-435
MCF7 breast = tested on: MCF7 breast

Cc1cc2c(c(C(N)=O)c1C)-c1cccc(Cl)c1C2=O
TGI (RXF-631 renal): > 100000 nM
TGI (SNB-78 CNS): > 100000 nM
TGI (UO-31 renal): > 100000 nM
TGI (SK-MEL-28 melanoma): > 100000 nM
TGI (OVCAR-8 ovarian): > 100000 nM
TGI (OVCAR-5 ovarian): > 100000 nM
TGI (HL-60(TB) leukemia): > 100000 nM
TGI (786-0 renal): > 100000 nM
TGI (KM12 colon): > 100000 nM
TGI (UACC-62 melanoma): > 100000 nM
TGI (XF 498 CNS): > 100000 nM
TGI (SW-620 colon): > 100000 nM
TGI (SF-539 CNS): > 100000 nM
TGI (HCC-2998 colon): > 100000 nM
TGI (CCRF-CEM leukemia): > 100000 nM
TGI (TK-10 renal): > 100000 nM
TGI (UACC-257 melanoma): > 100000 nM
TGI (MOLT-4 leukemia): > 100000 nM
TGI (HT29 colon): > 100000 nM
TGI (NCI-H23 lung): > 100000 nM
TGI (LXFL 529 NSCLC): > 100000 nM
TGI (SK-OV-3 ovarian): > 100000 nM
TGI (SN12C renal): > 100000 nM
TGI (SF-295 CNS): > 100000 nM
TGI (HOP-92 NSCLC): > 100000 nM
TGI (RPMI-8226 leukemia): > 100000 nM
TGI (HOP-62 NSCLC): > 100000 nM
TGI (OVCAR-3 ovarian): > 100000 nM
TGI (HCT-116 colon): > 100000 nM
TGI (SF-268 CNS): > 100000 nM
TGI (A549 NSCLC): > 100000 nM
TGI (HCT-15 colon): > 100000 nM
TGI (A498 renal): > 100000 nM
TGI (SNB-19 CNS): > 100000 nM
TGI (OVCAR-4 ovarian): > 100000 nM
TGI (EKVX NSCLC): > 100000 nM
TGI (COLO 205 colon): > 100000 nM
TGI (SK-MEL-5 melanoma): > 100000 nM
TGI (NCI-H522 lung): > 100000 nM
TGI (ACHN renal): > 100000 nM
TGI (KM20L2 colon): > 100000 nM
TGI (K-562 leukemia): > 100000 nM
TGI (DLD-1 colon): > 100000 nM
TGI (SK-MEL-2 melanoma): > 100000 nM
TGI (LOX IMVI melanoma): > 100000 nM
TGI (MALME-3M melanoma): > 100000 nM
TGI (IGROV1 ovarian): > 100000 nM
TGI (M14 melanoma): > 100000 nM
TGI (DMS 114 small cell lung): > 100000 nM
TGI (DMS 273 small cell lung): > 100000 nM
TGI (NCI-H460 lung): > 100000 nM
TGI (SNB-75 CNS): > 100000 nM
TGI (U251 CNS): > 100000 nM

O=C1C=CC(=O)c2c(O)c(CO)c(CO)c(O)c21
TGI (RXF-631 renal): 2550 nM
TGI (SNB-78 CNS): 3520 nM
TGI (UO-31 renal): 2200 nM
TGI (SK-MEL-28 melanoma): 960 nM
TGI (OVCAR-8 ovarian): 2040 nM
TGI (OVCAR-5 ovarian): 3540 nM
TGI (HL-60(TB) leukemia): 405 nM
TGI (786-0 renal): 723 nM
TGI (KM12 colon): 3190 nM
TGI (UACC-62 melanoma): 1880 nM
TGI (SR leukemia): 481 nM
TGI (XF 498 CNS): 665 nM
TGI (SW-620 colon): 288 nM
TGI (PC-3 prostate): 4370 nM
TGI (SF-539 CNS): 1710 nM
TGI (DU-145 prostate): 3270 nM
TGI (HCC-2998 colon): 4780 nM
TGI (CCRF-CEM leukemia): 195 nM
TGI (TK-10 renal): 842 nM
TGI (UACC-257 melanoma): 883 nM
TGI (MOLT-4 leukemia): 188 nM
TGI (MDA-MB-231 breast): 2740 nM
TGI (HT29 colon): 741 nM
TGI (CAKI-1 renal): 875 nM
TGI (NCI-H23 lung): 1300 nM
TGI (LXFL 529 NSCLC): 351 nM
TGI (HS 578T breast): 4710 nM
TGI (SK-OV-3 ovarian): 18000 nM
TGI (BT-549 breast): 593 nM
TGI (SN12C renal): 774 nM
TGI (NCI-H226 lung): 5030 nM
TGI (SF-295 CNS): 3190 nM
TGI (HOP-92 NSCLC): 944 nM
TGI (RPMI-8226 leukemia): 814 nM
TGI (HOP-62 NSCLC): 2400 nM
TGI (OVCAR-3 ovarian): 1710 nM
TGI (HCT-116 colon): 662 nM
TGI (SF-268 CNS): 3930 nM
TGI (A549 NSCLC): 5580 nM
TGI (HCT-15 colon): 490 nM
TGI (A498 renal): 3640 nM
TGI (SNB-19 CNS): 6130 nM
TGI (OVCAR-4 ovarian): 581 nM
TGI (EKVX NSCLC): 5030 nM
TGI (M19-MEL melanoma): 216 nM
TGI (T-47D breast): 1520 nM
TGI (COLO 205 colon): 171 nM
TGI (SK-MEL-5 melanoma): 1120 nM
TGI (NCI-H522 lung): 239 nM
TGI (NCI/ADR-RES ovarian): 8200 nM
TGI (ACHN renal): 1050 nM
TGI (KM20L2 colon): 2250 nM
TGI (K-562 leukemia): 13400 nM
TGI (DLD-1 colon): 202 nM
TGI (SK-MEL-2 melanoma): 2580 nM
TGI (LOX IMVI melanoma): 674 nM
TGI (RXF 393 renal): 939 nM
TGI (MDA-N): 736 nM
TGI (MALME-3M melanoma): 467 nM
TGI (MDA-MB-435): 1660 nM
TGI (IGROV1 ovarian): 4140 nM
TGI (M14 melanoma): 411 nM
TGI (MCF7 breast): 337 nM
TGI (DMS 114 small cell lung): 878 nM
TGI (DMS 273 small cell lung): 1420 nM
TGI (NCI-H460 lung): 2790 nM
TGI (SNB-75 CNS): 1640 nM
TGI (U251 CNS): 5350 nM
